Laboratory results published in the supplement of paper PMC10307832.

What was measured:
Test in all cases: relative viability (nuclei count vs DMSO), 5 days (fraction); higher = more cells survive
QS11 + Crizotinib = compound: C1CC2=C(C1)C=C(C=C2)OC3=NC(=C4C(=N3)N(C=N4)CC5=CC=C(C=C5)C6=CC=CC=C6)N[C@@H](CC7=CC=CC=C7)CO [QS11] + C[C@@H](Oc1cc(-c2cnn(C3CCNCC3)c2)cnc1N)c1c(Cl)ccc(F)c1Cl [Crizotinib] (partner 1 µM)
In short: (§1)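 Relative viability equals treated-well nuclei counts divided by vehicle-well nuclei counts. Counts came from 4× images of lung cancer cell lines grown in 1536-well plates for 5 days after pin-tool dosing on the day after seeding. Dosing used one drug alone or a fixed anchor-drug dose plus five library-drug doses (not always all listed) in √10 steps, and values are medians of duplicate plates.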

[1] = compound: C[As](C)SC[C@H](NC(=O)CC[C@H](N)C(=O)O)C(=O)NCC(=O)O [Darinaparsin] + CC1(C)CCC(c2ccc(Cl)cc2)=C(CN2CCN(c3ccc(C(=O)NS(=O)(=O)c4ccc(N[C@H](CCN5CCOCC5)CSc5ccccc5)c(S(=O)(=O)C(F)(F)F)c4)cc3)CC2)C1 [Navitoclax] (partner 0.5 µM)
In short: as §1

Darinaparsin + Olaparib = compound: C[As](C)SC[C@H](NC(=O)CC[C@H](N)C(=O)O)C(=O)NCC(=O)O [Darinaparsin] + O=C(c1cc(Cc2n[nH]c(=O)c3ccccc23)ccc1F)N1CCN(C(=O)C2CC2)CC1 [Olaparib] (partner 8 µM)
In short: as §1

QS11 + Vorinostat = compound: C1CC2=C(C1)C=C(C=C2)OC3=NC(=C4C(=N3)N(C=N4)CC5=CC=C(C=C5)C6=CC=CC=C6)N[C@@H](CC7=CC=CC=C7)CO [QS11] + O=C(CCCCCCC(=O)Nc1ccccc1)NO [Vorinostat] (partner 1 µM)
In short: as §1

Cell Line	relative viability (QS11 + Crizotinib; first compound 0.08 µM)	relative viability (QS11 + Crizotinib; first compound 0.253 µM)	relative viability (QS11 + Crizotinib; first compound 0.8 µM)	relative viability (QS11 + Crizotinib; first compound 2.53 µM)	relative viability (QS11 + Crizotinib; first compound 8 µM)	relative viability ([1]; first compound 0.08 µM)	relative viability ([1]; first compound 0.8 µM)	relative viability ([1]; first compound 2.53 µM)	relative viability ([1]; first compound 8 µM)	relative viability (Darinaparsin + Olaparib; first compound 0.08 µM)	relative viability (Darinaparsin + Olaparib; first compound 0.8 µM)	relative viability (Darinaparsin + Olaparib; first compound 2.53 µM)	relative viability (Darinaparsin + Olaparib; first compound 8 µM)	relative viability (QS11 + Vorinostat; first compound 0.08 µM)	relative viability (QS11 + Vorinostat; first compound 0.253 µM)	relative viability (QS11 + Vorinostat; first compound 0.8 µM)	relative viability (QS11 + Vorinostat; first compound 2.53 µM)	relative viability (QS11 + Vorinostat; first compound 8 µM)
NCI-H23	0.473	0.462	0.473	0.385	0.44	1.09	0.917	0.963	1.02	0.293	0.291	0.363	0.331	0.542	0.6	0.564	0.544	0.491
NCI-H322M	0.934	0.835	0.79	0.754	1	1.25	1.17	1.13	1.33	0.763	0.763	0.713	0.726	0.858	0.997	1.05	1.16	1.41
NCI-H441	0.776	0.847	0.621	0.6	0.707	0.773	0.593	0.615	0.962	0.647	0.538	0.734	0.502	0.855	0.857	0.658	0.53	0.717
NCI-H460	1.17	0.868	0.684	0.31	0.177	–	1.05	0.978	1.91	0.614	0.413	0.435	0.324	0.938	0.811	0.541	0.687	0.212
NCI-H520	–	0.907	0.831	0.587	0.932	1.41	0.976	1.17	1.11	0.378	0.321	0.354	0.313	0.758	0.758	0.639	0.804	0.88
NCI-H596	1.03	0.862	0.963	0.991	1.04	1.3	1.11	0.83	1.23	0.634	0.675	0.667	0.774	0.52	0.51	0.501	0.623	0.593
NCI-H647	1.25	1.3	0.937	0.992	0.706	1.42	1.09	0.981	1.04	0.681	0.601	0.382	0.604	0.623	0.801	0.62	0.387	0.356
NCI-H727	0.813	0.958	0.857	0.729	0.631	0.405	0.447	0.472	0.393	0.388	0.561	0.726	0.612	1.28	1.16	1.29	1.07	1.37
NCI-H838	0.937	0.788	0.576	0.746	0.761	1.51	1.15	1.15	1.5	1.07	0.778	0.734	0.941	0.735	0.642	0.666	0.774	0.755
NCI-H1355	0.99	1.58	0.823	0.915	0.972	1.08	0.94	0.836	1.05	0.78	0.708	0.676	0.746	0.732	0.62	0.529	0.597	0.554
NCI-H1437	0.99	1.04	0.862	0.747	0.744	1.54	1.1	0.962	1.33	0.705	0.623	0.615	0.689	0.894	0.751	0.616	0.609	0.39
NCI-H1650	0.994	0.843	0.868	0.986	0.894	1.7	1.17	1.14	1.28	0.956	0.718	0.95	0.801	0.463	0.446	0.51	0.476	0.389
NCI-H1651	0.888	0.95	0.79	0.903	0.899	1.11	1.01	0.863	0.999	0.192	0.18	0.18	0.159	0.555	0.518	0.527	0.571	0.564
NCI-H1666	0.995	0.808	0.668	0.52	0.432	1.09	0.938	1.23	1.09	0.734	0.746	0.834	0.72	1.04	1.09	0.924	0.713	0.73
NCI-H1734	0.65	0.656	0.658	0.555	0.619	1.07	0.947	0.806	1.11	0.73	0.561	0.627	0.641	0.79	0.82	0.779	0.792	0.672
NCI-H1755	0.889	0.826	0.509	0.677	0.691	1.08	0.967	0.941	1.2	0.915	0.774	0.848	0.899	0.748	0.714	0.605	0.515	0.655
NCI-H1915	0.926	1.13	–	0.824	0.815	0.88	0.82	0.771	0.812	0.259	0.22	0.269	0.272	0.522	0.528	–	0.467	0.391
NCI-H1944	1.13	1.43	–	0.91	0.834	1.06	1.07	1.04	1.06	0.458	0.44	0.363	0.404	0.485	0.491	–	0.424	0.505
